According to patent US12398140B2, “Substituted pyrrolo [2,3-d]pyrimidines for treating familial dysautonomia” (PTC THERAPEUTICS, INC., priority 2019, dated 2025):

tested on: Elongator complex protein 1 (ELPI, also referred to as IKBKAP); assay: IKBKAP-HTRF assay (IKBKAP protein in lysates of FD patient-derived fibroblasts); format: cell-based, human; conditions: FD patient-derived fibroblasts GM04589, 48 hours, 7-point concentration curve
Method in brief: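 FD patient-derived fibroblasts (10,000/well) treated 48 h at 37 °C with compound across a 7-point 3.16-fold series, in triplicate; lysates assayed by sandwich HTRF with two anti-IKAP antibodies, overnight at 4 °C, 665/620 nm read. MFI = ΔF over vehicle; EC2x = concentration doubling IKBKAP protein versus DMSO.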

| SMILES | EC2x for IKBKAP protein expression (concentration producing two times the amount of IKBKAP protein vs DMSO vehicle control) | MFI (maximum fold increase in IKBKAP protein abundance relative to the vehicle control) |
| --- | --- | --- |
| CC[C@H](N)Cc1[nH]c2nc(Cl)nc(NCc3ccco3)c2c1F.Cl [Cpd 44, 6-[(2S)-2-aminobutyl]-2-chloro-5-fluoro-N-[(furan-2-yl)methyl]-7H-pyrrolo[2,3-d]pyrimidin-4-amine hydrochloride] | **** (between >0.005 μM and ≤0.02 μM is indicated by four stars (****)) | ***** (>4.9 is indicated by five stars (*****)) |
| CC[C@H](N)Cc1c(F)c2c(NCc3ccco3)nc(Cl)nc2n1C.Cl [Cpd 45, 6-[(2S)-2-aminobutyl]-2-chloro-5-fluoro-N-[(furan-2-yl)methyl]-7-methyl-7H-pyrrolo[2,3-d]pyrimidin-4-amine hydrochloride] | *** (between >0.02 μM and ≤0.5 μM is indicated by three stars (***)) | ***** (>4.9 is indicated by five stars (*****)) |
| COc1ccc(-n2c(C[C@H](C)N)c(F)c3c(NCc4ccco4)nc(Cl)nc32)cc1.Cl [Cpd 46, 6-[(2S)-2-aminopropyl]-2-chloro-5-fluoro-N-[(furan-2-yl)methyl]-7-(4-methoxyphenyl)-7H-pyrrolo[2,3-d]pyrimidin-4-amine hydrochloride] | * (An EC2x>1 μM is indicated by one star (*)) | * (An MFI≤1.9 is indicated by one star (*)) |
| COc1ccc(-n2c(C[C@H](C)N)c(F)c3c(NCc4cccs4)nc(Cl)nc32)cc1.Cl [Cpd 47, 6-[(2S)-2-aminopropyl]-2-chloro-5-fluoro-7-(4-methoxyphenyl)-N-[(thiophen-2-yl)methyl]-7H-pyrrolo[2,3-d]pyrimidin-4-amine hydrochloride] | * (An EC2x>1 μM is indicated by one star (*)) | * (An MFI≤1.9 is indicated by one star (*)) |
| C[C@H](N)Cc1c(F)c2c(NCc3cncs3)nc(Cl)nc2n1C.Cl.Cl [Cpd 48, 6-[(2S)-2-aminopropyl]-2-chloro-5-fluoro-7-methyl-N-[(1,3-thiazol-5-yl)methyl]-7H-pyrrolo[2,3-d]pyrimidin-4-amine dihydrochloride] | * (An EC2x>1 μM is indicated by one star (*)) | * (An MFI≤1.9 is indicated by one star (*)) |
| C[C@H](N)Cc1c(F)c2c(NCc3cccs3)nc(Cl)nc2n1C.Cl [Cpd 49, 6-[(2S)-2-aminopropyl]-2-chloro-5-fluoro-7-methyl-N-[(thiophen-2-yl)methyl]-7H-pyrrolo[2,3-d]pyrimidin-4-amine hydrochloride] | **** (between >0.005 μM and ≤0.02 μM is indicated by four stars (****)) | ***** (>4.9 is indicated by five stars (*****)) |
| C[C@H](N)Cc1[nH]c2nc(Cl)nc(NCc3ccccc3)c2c1F.Cl [Cpd 50, 6-[(2S)-2-aminopropyl]-N-benzyl-2-chloro-5-fluoro-7H-pyrrolo[2,3-d]pyrimidin-4-amine hydrochloride] | *** (between >0.02 μM and ≤0.5 μM is indicated by three stars (***)) | *** (between >2.9 and ≤3.9 is indicated by three stars (***)) |
| C[C@H](N)Cc1c(F)c2c(NCc3ccccc3)nc(Cl)nc2n1C.Cl [Cpd 51, 6-[(2S)-2-aminopropyl]-N-benzyl-2-chloro-5-fluoro-7-methyl-7H-pyrrolo[2,3-d]pyrimidin-4-amine hydrochloride] | *** (between >0.02 μM and ≤0.5 μM is indicated by three stars (***)) | *** (between >2.9 and ≤3.9 is indicated by three stars (***)) |
| C[C@H](N)Cc1[nH]c2nc(Cl)nc(NCc3ccccc3F)c2c1F.Cl [Cpd 52, 6-[(2S)-2-aminopropyl]-2-chloro-5-fluoro-N-[(2-fluorophenyl)methyl]-7H-pyrrolo[2,3-d]pyrimidin-4-amine hydrochloride] | *** (between >0.02 μM and ≤0.5 μM is indicated by three stars (***)) | **** (between >3.9 and ≤4.9 is indicated by four stars (****)) |
| C[C@H](N)Cc1c(F)c2c(NCc3ccccc3F)nc(Cl)nc2n1C.Cl [Cpd 53, 6-[(2S)-2-aminopropyl]-2-chloro-5-fluoro-N-[(2-fluorophenyl)methyl]-7-methyl-7H-pyrrolo[2,3-d]pyrimidin-4-amine hydrochloride] | *** (between >0.02 μM and ≤0.5 μM is indicated by three stars (***)) | **** (between >3.9 and ≤4.9 is indicated by four stars (****)) |
| C[C@H](N)Cc1[nH]c2nc(Cl)nc(NCc3ccccn3)c2c1F.Cl.Cl [Cpd 54, 6-[(2S)-2-aminopropyl]-2-chloro-5-fluoro-N-[(pyridin-2-yl)methyl]-7H-pyrrolo[2,3-d]pyrimidin-4-amine dihydrochloride] | *** (between >0.02 μM and ≤0.5 μM is indicated by three stars (***)) | ** (between >1.9 and ≤2.9 is indicated by two stars (**)) |
| C[C@H](N)Cc1c(F)c2c(NCc3ccccn3)nc(Cl)nc2n1C.Cl.Cl [Cpd 55, 6-[(2S)-2-aminopropyl]-2-chloro-5-fluoro-7-methyl-N-[(pyridin-2-yl)methyl]-7H-pyrrolo[2,3-d]pyrimidin-4-amine dihydrochloride] | * (An EC2x>1 μM is indicated by one star (*)) | * (An MFI≤1.9 is indicated by one star (*)) |
| C[C@H](N)Cc1[nH]c2nc(Cl)nc(NCc3cccnc3)c2c1F.Cl.Cl [Cpd 56, 6-[(2S)-2-aminopropyl]-2-chloro-5-fluoro-N-[(pyridin-3-yl)methyl]-7H-pyrrolo[2,3-d]pyrimidin-4-amine dihydrochloride] | * (An EC2x>1 μM is indicated by one star (*)) | * (An MFI≤1.9 is indicated by one star (*)) |
| C[C@H](N)Cc1c(F)c2c(NCc3cccnc3)nc(Cl)nc2n1C.Cl.Cl [Cpd 57, 6-[(2S)-2-aminopropyl]-2-chloro-5-fluoro-7-methyl-N-[(pyridin-3-yl)methyl]-7H-pyrrolo[2,3-d]pyrimidin-4-amine dihydrochloride] | * (An EC2x>1 μM is indicated by one star (*)) | * (An MFI≤1.9 is indicated by one star (*)) |
| CC[C@H](N)Cc1[nH]c2nc(Cl)nc(NCc3cccs3)c2c1F.Cl [Cpd 58, 6-[(2S)-2-aminobutyl]-2-chloro-5-fluoro-N-[(thiophen-2-yl)methyl]-7H-pyrrolo[2,3-d]pyrimidin-4-amine hydrochloride] | *** (between >0.02 μM and ≤0.5 μM is indicated by three stars (***)) | **** (between >3.9 and ≤4.9 is indicated by four stars (****)) |
| CC[C@H](N)Cc1[nH]c2nc(Cl)nc(NCc3nccs3)c2c1F.Cl [Cpd 59, 6-[(2S)-2-aminobutyl]-2-chloro-5-fluoro-N-[(1,3-thiazol-2-yl)methyl]-7H-pyrrolo[2,3-d]pyrimidin-4-amine hydrochloride] | *** (between >0.02 μM and ≤0.5 μM is indicated by three stars (***)) | ***** (>4.9 is indicated by five stars (*****)) |
| C[C@@H](N)Cc1c(F)c2c(NCc3ccco3)nc(Cl)nc2n1C.Cl [Cpd 60, 6-[(2R)-2-aminopropyl]-2-chloro-5-fluoro-N-[(furan-2-yl)methyl]-7-methyl-7H-pyrrolo[2,3-d]pyrimidin-4-amine hydrochloride] | * (An EC2x>1 μM is indicated by one star (*)) | * (An MFI≤1.9 is indicated by one star (*)) |
| C[C@H](N)Cc1cc2c(NCc3cscn3)nc(Cl)nc2[nH]1 [Cpd 61, 6-[(2S)-2-aminopropyl]-2-chloro-N-[(1,3-thiazol-4-yl)methyl]-7H-pyrrolo[2,3-d]pyrimidin-4-amine] | * (An EC2x>1 μM is indicated by one star (*)) | * (An MFI≤1.9 is indicated by one star (*)) |
| C[C@H](N)Cc1[nH]c2nc(Br)nc(NCc3ccco3)c2c1F [Cpd 62, 6-[(2S)-2-aminopropyl]-2-bromo-5-fluoro-N-[(furan-2-yl)methyl]-7H-pyrrolo[2,3-d]pyrimidin-4-amine] | **** (between >0.005 μM and ≤0.02 μM is indicated by four stars (****)) | ***** (>4.9 is indicated by five stars (*****)) |
